In patent publication US20260042764A1, “COMPOSITIONS AND METHODS FOR INHIBITION OF KRAS” (TheRas, Inc., priority 2022, published 2026):

Target: T1, Avi-KRAS G12D (1-169) GppNHp/RAF1 RBD-3xFLAG (52-151) (Homo sapiens, UniProt P01116, G12D)
T1 construct: Avi-KRAS G12D (1-169)
Test: Raf1-KRAS G12D-GppNHP disruption HTRF assay (Biological Example 1)
Assay type: binding
Conditions: KRAS G12D-GppNHp/RAF1 RBD HTRF
Method in brief: (§1)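 Compounds were tested for disruption of KRAS–RAF1 RBD binding by HTRF in 50 mM Tris pH 7.5, 100 mM NaCl, 5 mM MgCl2, 0.1% BSA, 0.01% Tween, 10% DMSO. Protein mix was incubated 1 h at room temperature with shaking, then detection reagents added for another 1 h. Activity expressed as percent of DMSO control.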

T1 sequence (P01116 1-169 isoform P01116-2 G12D): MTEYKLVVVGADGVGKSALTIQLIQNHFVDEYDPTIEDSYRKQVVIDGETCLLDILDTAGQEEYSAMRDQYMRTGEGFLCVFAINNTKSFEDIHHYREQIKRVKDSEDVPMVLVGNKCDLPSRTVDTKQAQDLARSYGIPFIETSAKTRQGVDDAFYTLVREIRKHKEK

Which IC50 does the source give for `N#Cc1c(N)sc2c(F)ccc(-c3c(C(F)(F)F)cc4c(N5CCS(=N)(=O)CC5)nc(OC[C@@]56CCCN5C[C@H](F)C6)nc4c3F)c12` [Compound 297] here?
The IC50 was 100 to 1000 nM.

For `CCC(=O)N1CC[C@@H](N(C)c2nc(OC[C@@]34CCCN3C[C@H](F)C4)nc3c(F)c(-c4ccc(F)c5sc(N)c(C#N)c45)c(C(F)(F)F)cc23)[C@@H]1C` [Compound 299], which IC50 is on record?
The IC50 was 100 to 1000 nM.

With `CC(C)C(=O)N1CC[C@@H](N(C)c2nc(OC[C@@]34CCCN3C[C@H](F)C4)nc3c(F)c(-c4ccc(F)c5sc(N)c(C#N)c45)c(C(F)(F)F)cc23)[C@@H]1C` [Compound 300] as the compound, how does the IC50 read?
The IC50 was 100 to 1000 nM.

With `C[C@H]1[C@H](N(C)c2nc(OC[C@@]34CCCN3C[C@H](F)C4)nc3c(F)c(-c4ccc(F)c5sc(N)c(C#N)c45)c(C(F)(F)F)cc23)CCN1C(=O)C1CC1` [Compound 301] as the compound, how does the IC50 read?
The IC50 was 100 to 1000 nM.

How did the IC50 turn out when `C[C@H]1CS(=O)(=O)CCN1c1nc(OC[C@@]23CCCN2C[C@H](F)C3)nc2c(F)c(-c3ccc(F)c4sc(N)c(C#N)c34)c(C(F)(F)F)cc12` [Compound 302] was run?
Its IC50 is 100 to 1000 nM.

How did the IC50 turn out when `CC(=O)N1C[C@@H](C)[C@H](N(C)c2nc(OC[C@@]34CCCN3C[C@H](F)C4)nc3c(F)c(-c4ccc(F)c5sc(N)c(C#N)c45)c(C(F)(F)F)cc23)C1` [Compound 303] was run?
Its IC50 is 100 to 1000 nM.

Target: T2, Avi-KRAS G12R (1-169) GppNHp/RAF1 RBD-3xFLAG (52-151) (Homo sapiens, UniProt P01116, G12R)
T2 construct: Avi-KRAS G12R (1-169)
T2 sequence (P01116 1-169 isoform P01116-2 G12R): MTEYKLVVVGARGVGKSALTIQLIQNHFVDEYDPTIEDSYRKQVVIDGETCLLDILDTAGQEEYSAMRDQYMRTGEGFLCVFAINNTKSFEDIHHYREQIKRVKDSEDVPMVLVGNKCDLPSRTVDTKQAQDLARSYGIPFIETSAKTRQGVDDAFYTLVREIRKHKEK
Test: Raf1-KRAS G12R-GppNHP disruption HTRF assay (Biological Example 1)
Assay type: binding
Conditions: KRAS G12R-GppNHp/RAF1 RBD HTRF
Method in brief: as §1

For `N#Cc1c(N)sc2c(F)ccc(-c3c(C(F)(F)F)cc4c(N5CCS(=N)(=O)CC5)nc(OC[C@@]56CCCN5C[C@H](F)C6)nc4c3F)c12` [Compound 297], which IC50 is on record?
Its IC50 is 100 to 1000 nM.

Which IC50 does the source give for `CCC(=O)N1CC[C@@H](N(C)c2nc(OC[C@@]34CCCN3C[C@H](F)C4)nc3c(F)c(-c4ccc(F)c5sc(N)c(C#N)c45)c(C(F)(F)F)cc23)[C@@H]1C` [Compound 299] here?
Its IC50 is 1000 to 10000 nM.

Which IC50 does the source give for `CC(C)C(=O)N1CC[C@@H](N(C)c2nc(OC[C@@]34CCCN3C[C@H](F)C4)nc3c(F)c(-c4ccc(F)c5sc(N)c(C#N)c45)c(C(F)(F)F)cc23)[C@@H]1C` [Compound 300] here?
Its IC50 is 1000 to 10000 nM.

Which IC50 does the source give for `C[C@H]1[C@H](N(C)c2nc(OC[C@@]34CCCN3C[C@H](F)C4)nc3c(F)c(-c4ccc(F)c5sc(N)c(C#N)c45)c(C(F)(F)F)cc23)CCN1C(=O)C1CC1` [Compound 301] here?
Its IC50 is 1000 to 10000 nM.

Which IC50 does the source give for `C[C@H]1CS(=O)(=O)CCN1c1nc(OC[C@@]23CCCN2C[C@H](F)C3)nc2c(F)c(-c3ccc(F)c4sc(N)c(C#N)c34)c(C(F)(F)F)cc12` [Compound 302] here?
Its IC50 is 100 to 1000 nM.

For `CC(=O)N1C[C@@H](C)[C@H](N(C)c2nc(OC[C@@]34CCCN3C[C@H](F)C4)nc3c(F)c(-c4ccc(F)c5sc(N)c(C#N)c45)c(C(F)(F)F)cc23)C1` [Compound 303], which IC50 is on record?
The IC50 was 100 to 1000 nM.

Target: T3, Avi-KRAS G12V (1-169) GppNHp/RAF1 RBD-3xFLAG (52-151) (Homo sapiens, UniProt P01116, G12V)
T3 construct: Avi-KRAS G12V (1-169)
T3 sequence (P01116 1-169 isoform P01116-2 G12V): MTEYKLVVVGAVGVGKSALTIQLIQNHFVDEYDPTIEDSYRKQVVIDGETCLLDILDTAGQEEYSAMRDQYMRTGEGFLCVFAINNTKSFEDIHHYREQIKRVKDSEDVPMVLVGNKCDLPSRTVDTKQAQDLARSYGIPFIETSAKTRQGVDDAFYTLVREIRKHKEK
Test: Raf1-KRAS G12V-GppNHP disruption HTRF assay (Biological Example 1)
Assay type: binding
Conditions: KRAS G12V-GppNHp/RAF1 RBD HTRF
Method in brief: as §1

`N#Cc1c(N)sc2c(F)ccc(-c3c(C(F)(F)F)cc4c(N5CCS(=N)(=O)CC5)nc(OC[C@@]56CCCN5C[C@H](F)C6)nc4c3F)c12` [Compound 297] was tested. Which IC50 did it give?
The IC50 was 100 to 1000 nM.

`CCC(=O)N1CC[C@@H](N(C)c2nc(OC[C@@]34CCCN3C[C@H](F)C4)nc3c(F)c(-c4ccc(F)c5sc(N)c(C#N)c45)c(C(F)(F)F)cc23)[C@@H]1C` [Compound 299] was tested. Which IC50 did it give?
Its IC50 is 1000 to 10000 nM.

How did the IC50 turn out when `CC(C)C(=O)N1CC[C@@H](N(C)c2nc(OC[C@@]34CCCN3C[C@H](F)C4)nc3c(F)c(-c4ccc(F)c5sc(N)c(C#N)c45)c(C(F)(F)F)cc23)[C@@H]1C` [Compound 300] was run?
Its IC50 is 1000 to 10000 nM.

How did the IC50 turn out when `C[C@H]1[C@H](N(C)c2nc(OC[C@@]34CCCN3C[C@H](F)C4)nc3c(F)c(-c4ccc(F)c5sc(N)c(C#N)c45)c(C(F)(F)F)cc23)CCN1C(=O)C1CC1` [Compound 301] was run?
Its IC50 is 1000 to 10000 nM.

How did the IC50 turn out when `C[C@H]1CS(=O)(=O)CCN1c1nc(OC[C@@]23CCCN2C[C@H](F)C3)nc2c(F)c(-c3ccc(F)c4sc(N)c(C#N)c34)c(C(F)(F)F)cc12` [Compound 302] was run?
The IC50 was 1000 to 10000 nM.

`CC(=O)N1C[C@@H](C)[C@H](N(C)c2nc(OC[C@@]34CCCN3C[C@H](F)C4)nc3c(F)c(-c4ccc(F)c5sc(N)c(C#N)c45)c(C(F)(F)F)cc23)C1` [Compound 303] was tested. Which IC50 did it give?
The IC50 was 100 to 1000 nM.

Target: T4, Avi-KRAS WT (1-169) GppNHp/RAF1 RBD-3xFLAG (52-151) (Homo sapiens, UniProt P01116)
T4 construct: Avi-KRAS WT (1-169)
T4 sequence (P01116 1-169 isoform P01116-2): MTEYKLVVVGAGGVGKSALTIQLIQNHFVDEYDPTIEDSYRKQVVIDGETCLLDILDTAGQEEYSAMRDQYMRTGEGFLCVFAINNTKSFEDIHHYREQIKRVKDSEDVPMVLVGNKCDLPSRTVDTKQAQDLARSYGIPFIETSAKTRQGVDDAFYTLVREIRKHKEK
Test: Raf1-KRAS WT-GppNHP disruption HTRF assay (Biological Example 1)
Assay type: binding
Conditions: KRAS WT-GppNHp/RAF1 RBD HTRF
Method in brief: as §1

`N#Cc1c(N)sc2c(F)ccc(-c3c(C(F)(F)F)cc4c(N5CCS(=N)(=O)CC5)nc(OC[C@@]56CCCN5C[C@H](F)C6)nc4c3F)c12` [Compound 297] was tested. Which IC50 did it give?
The IC50 was 100 to 1000 nM.

Which IC50 does the source give for `CCC(=O)N1CC[C@@H](N(C)c2nc(OC[C@@]34CCCN3C[C@H](F)C4)nc3c(F)c(-c4ccc(F)c5sc(N)c(C#N)c45)c(C(F)(F)F)cc23)[C@@H]1C` [Compound 299] here?
Its IC50 is 100 to 1000 nM.

With `CC(C)C(=O)N1CC[C@@H](N(C)c2nc(OC[C@@]34CCCN3C[C@H](F)C4)nc3c(F)c(-c4ccc(F)c5sc(N)c(C#N)c45)c(C(F)(F)F)cc23)[C@@H]1C` [Compound 300] as the compound, how does the IC50 read?
The IC50 was 100 to 1000 nM.

How did the IC50 turn out when `C[C@H]1[C@H](N(C)c2nc(OC[C@@]34CCCN3C[C@H](F)C4)nc3c(F)c(-c4ccc(F)c5sc(N)c(C#N)c45)c(C(F)(F)F)cc23)CCN1C(=O)C1CC1` [Compound 301] was run?
Its IC50 is 100 to 1000 nM.

`C[C@H]1CS(=O)(=O)CCN1c1nc(OC[C@@]23CCCN2C[C@H](F)C3)nc2c(F)c(-c3ccc(F)c4sc(N)c(C#N)c34)c(C(F)(F)F)cc12` [Compound 302] was tested. Which IC50 did it give?
The IC50 was 100 to 1000 nM.

`CC(=O)N1C[C@@H](C)[C@H](N(C)c2nc(OC[C@@]34CCCN3C[C@H](F)C4)nc3c(F)c(-c4ccc(F)c5sc(N)c(C#N)c45)c(C(F)(F)F)cc23)C1` [Compound 303] was tested. Which IC50 did it give?
Its IC50 is 100 to 1000 nM.

Tested on: GP2d cells (KRAS G12D)
Test: Cell-based pERK HTRF assay in GP2d cell (Biological Example 2)
Conditions: GP2d, GP2d (KRAS G12D) cells, pERK HTRF
Method in brief: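 HTRF read-out of pERK (excitation 320 nm, emission 615 nm) after lysates sat 4–24 h at room temperature with Eu cryptate and d2 antibodies.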

For `N#Cc1c(N)sc2c(F)ccc(-c3c(C(F)(F)F)cc4c(N5CCS(=N)(=O)CC5)nc(OC[C@@]56CCCN5C[C@H](F)C6)nc4c3F)c12` [Compound 297], which IC50 is on record?
The IC50 was < 100 nM.

Which IC50 does the source give for `CCC(=O)N1CC[C@@H](N(C)c2nc(OC[C@@]34CCCN3C[C@H](F)C4)nc3c(F)c(-c4ccc(F)c5sc(N)c(C#N)c45)c(C(F)(F)F)cc23)[C@@H]1C` [Compound 299] here?
Its IC50 is < 100 nM.

For `CC(C)C(=O)N1CC[C@@H](N(C)c2nc(OC[C@@]34CCCN3C[C@H](F)C4)nc3c(F)c(-c4ccc(F)c5sc(N)c(C#N)c45)c(C(F)(F)F)cc23)[C@@H]1C` [Compound 300], which IC50 is on record?
The IC50 was < 100 nM.

Which IC50 does the source give for `C[C@H]1[C@H](N(C)c2nc(OC[C@@]34CCCN3C[C@H](F)C4)nc3c(F)c(-c4ccc(F)c5sc(N)c(C#N)c45)c(C(F)(F)F)cc23)CCN1C(=O)C1CC1` [Compound 301] here?
Its IC50 is < 100 nM.

For `C[C@H]1CS(=O)(=O)CCN1c1nc(OC[C@@]23CCCN2C[C@H](F)C3)nc2c(F)c(-c3ccc(F)c4sc(N)c(C#N)c34)c(C(F)(F)F)cc12` [Compound 302], which IC50 is on record?
Its IC50 is < 100 nM.

Which IC50 does the source give for `CC(=O)N1C[C@@H](C)[C@H](N(C)c2nc(OC[C@@]34CCCN3C[C@H](F)C4)nc3c(F)c(-c4ccc(F)c5sc(N)c(C#N)c45)c(C(F)(F)F)cc23)C1` [Compound 303] here?
The IC50 was < 100 nM.

Tested on: SW620 cells (KRAS G12V)
Test: Cell-based pERK HTRF assay in SW620 cell (Biological Example 4)
Conditions: Homo sapiens, SW-620, SW620 (KRAS G12V) cells, pERK HTRF
Method in brief: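 SW620 cells were treated for 4 h with compound in a 9-point half-log series from 1 μM top (0.25% DMSO), then lysed. Phospho-ERK was detected by HTRF with d2 and Eu cryptate antibodies after 4–24 h at room temperature, read at 615 nm emission.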

With `N#Cc1c(N)sc2c(F)ccc(-c3c(C(F)(F)F)cc4c(N5CCS(=N)(=O)CC5)nc(OC[C@@]56CCCN5C[C@H](F)C6)nc4c3F)c12` [Compound 297] as the compound, how does the IC50 read?
Its IC50 is < 100 nM.

`CCC(=O)N1CC[C@@H](N(C)c2nc(OC[C@@]34CCCN3C[C@H](F)C4)nc3c(F)c(-c4ccc(F)c5sc(N)c(C#N)c45)c(C(F)(F)F)cc23)[C@@H]1C` [Compound 299] was tested. Which IC50 did it give?
The IC50 was < 100 nM.

With `CC(C)C(=O)N1CC[C@@H](N(C)c2nc(OC[C@@]34CCCN3C[C@H](F)C4)nc3c(F)c(-c4ccc(F)c5sc(N)c(C#N)c45)c(C(F)(F)F)cc23)[C@@H]1C` [Compound 300] as the compound, how does the IC50 read?
The IC50 was 100 to 1000 nM.

How did the IC50 turn out when `C[C@H]1[C@H](N(C)c2nc(OC[C@@]34CCCN3C[C@H](F)C4)nc3c(F)c(-c4ccc(F)c5sc(N)c(C#N)c45)c(C(F)(F)F)cc23)CCN1C(=O)C1CC1` [Compound 301] was run?
The IC50 was < 100 nM.

With `C[C@H]1CS(=O)(=O)CCN1c1nc(OC[C@@]23CCCN2C[C@H](F)C3)nc2c(F)c(-c3ccc(F)c4sc(N)c(C#N)c34)c(C(F)(F)F)cc12` [Compound 302] as the compound, how does the IC50 read?
Its IC50 is < 100 nM.

For `CC(=O)N1C[C@@H](C)[C@H](N(C)c2nc(OC[C@@]34CCCN3C[C@H](F)C4)nc3c(F)c(-c4ccc(F)c5sc(N)c(C#N)c45)c(C(F)(F)F)cc23)C1` [Compound 303], which IC50 is on record?
Its IC50 is 100 to 1000 nM.
